Test results reported in PMC10791743, “Selective CK1α degraders exert antiproliferative activity against a broad range of human cancer cell lines” (Nature Communications, 2024).
Values joined by “and” are separate entries in the source; they are usually repeats but may differ in a detail not shown here. Equal values may be shown once.

Tests used:
[1] = test system: panel of 9 human cancer cell lines (HD-MB03, MB004, MB002, MHH-CALL4, MOLM-13, TF-1, HEL, OCI-AML3, AML193); experiment: Molecular glue library screening, CellTiter-Glo cell viability, 72 h; assay type: cell-based; conditions: CTG, dose-response
Protocol: We screened our molecular glue library (3630 compounds) against a panel of 9 pediatric cancer cell lines to identify molecules displaying cell-selective sensitivities. In addition to the four cell lines we previously described (MB002, MB004, HD-MB03, and MHHCALL-4)[27], we included five additional AML cell lines (MOLM-13, TF-1, HEL, OCI-AML3, and AML193) to cover a broader range of genetic diversity and cancer vulnerabilities. The library screening was performed in high throughput (384-well plates) by incubating the cells with compounds for 72 h and assessing cell viability via CellTiter-Glo (CTG) in a dose–response manner, as reported previously.
The primary screen was performed in 384-well format using the CellTiter Glo (CTG) luminescent cell viability assay (Promega) as previously described. 3630 compounds from the St. Jude proprietary molecular glue library were screened against 9 human cancer cell lines (HD-MB03, MB004, MB002, MHH-CALL4, MOLM-13, TF-1, HEL, OCI-AML3, AML193). Each cell line was cultured in the complete medium recommended by the vendor and seeded in Corning 8804 BC white 384-well assay plates at densities of 1000, 1000, 1500, 7500, 1250, 156, 625, 1250, 1250 cells per well for HD-MB03, MB004, MB002, MHH-CALL4, MOLM-13, TF-1, HEL, OCI-AML, AML193, respectively. After overnight incubation at 37 °C in a humidified 5% CO2 incubator, cells were treated with compounds in dose–response format using a Pintool on a Biomek FX^P Laboratory Automation Workstation (Beckman Coulter). After 72 h of incubation, cell proliferation was assessed using a CellTiter-Glo (CTG) luminescent cell viability assay (Promega) according to the manufacturer’s instructions. Luminescence signal was measured using an EnVision plate reader (PerkinElmer).

[2] = test system: MOLM-13 cells; experiment: MOLM-13 cell viability assay (CTG, 72 h); assay type: cell-based, human; parameters: key to Cell viability in MOLM-13 cells / cell viability, dose-response replicate values: % viability = 100 − % activity, normalized to controls; conditions: for cell viability, dose-response replicate values: MOLM-13 WT, listed as CC-220
Protocol: The primary screen was performed in 384-well format using the CellTiter Glo (CTG) luminescent cell viability assay (Promega) as previously described. […] After overnight incubation at 37 °C in a humidified 5% CO2 incubator, cells were treated with compounds in dose–response format using a Pintool on a Biomek FX^P Laboratory Automation Workstation (Beckman Coulter). […] Luminescence signal was measured using an EnVision plate reader (PerkinElmer). […]
number per well and incubated overnight at 37 °C in a humidified 5 % CO2 incubator. Compounds were transferred to the assay plate from a dose-response plate using a Labcyte Echo 650 Acoustic Liquid Handler (Beckman Coulter , USA). […]
using Promega’s CellTiter-Glo reagent according to the manufacturer’s recommendation.
Luminescence was measured on the Envision plate reader (PerkinElmer, USA). Raw luminescence relative light unit (RLU) values for each compound at each concentration were normalized to obtain % activity using the following equation (1): 100 × [(mean(negctrl) – compound)/(mean (negctrl) – mean (posctrl))]. The % activity was converted to % viability using the following equation (2):
(100 – % activity), and then pooled from replicate experiments prior to fitting. Here, negctrl and posctrl refer to the negative (DMSO) and positive controls (staurosporine) on each plate. Dose-response curves were fit to the Hill equation using the GraphPad Prism (version 10). […]

[3] = Pharmacokinetics in female CD1 mice; assay type: in vivo, mouse; conditions: female CD1 mice
Protocol: Three mice were housed in each cage. […] Temperature and humidity were recorded by an auto-controlled data logger system. All the animals were provided a laboratory rodent diet (Altromin, Germany). Reverse osmosis water treated with ultraviolet light was provided ad libitum. Total 27 mice (n = 9/group) were divided into three groups as Group 1, Group 2, and Group 3 with a sparse sampling design (3 mice/time points). […] The formulation vehicle for IV was 5% v/v NMP, 5% v/v Solutol HS-15 and 90% v/v Normal saline, and for PO & IP was 10%v/v NMP, 10%v/v Solutol HS-15. 50%v/v PEG-400 and 30%v/v HPβCD (20%w/v) in saline. […] Immediately after blood collection, plasma was harvested by centrifugation at 12,300×g, 10 min at 4 °C and samples were stored at −70 ± 10 °C until bioanalysis. Concentrations of SJ3149 in mouse plasma samples were determined by fit-for-purpose LC–MS/MS method. Non-Compartmental-Analysis tool of Phoenix WinNonlin® (Version 8.3) was used to assess the pharmacokinetic parameters. Peak plasma concentration (Cmax) and time for the peak plasma concentration (Tmax) were the observed values. The area under the concentration–time curve (AUClast) was calculated by the linear trapezoidal rule. The terminal elimination rate constant, ke was determined by regression analysis of the linear terminal portion of the log plasma concentration-time curve. Clearance was estimated as Dose/AUCinf and Vss as CL*MRT.

[4] = single intraperitoneal 50 mg/kg, 0.5 hr
[5] = single intraperitoneal 50 mg/kg, 1 hr
[6] = single intraperitoneal 50 mg/kg, 2 hr
[7] = single intraperitoneal 50 mg/kg, 6 hr
[8] = single intraperitoneal 50 mg/kg, 8 hr
[9] = single intraperitoneal 50 mg/kg, 24 hr

Cc1ccc(NC(=O)NCc2ccc3c(c2)CN(C2CCC(=O)NC2=O)C3=O)cc1Cl (stereo not shown) [CC-885]
Cell viability across the panel of AL and MB cell lines [1]: cytotoxic to all cell lines in the panel

O=C1CC[C@H](N2Cc3c(OCc4ccc(CN5CCOCC5)cc4)cccc3C2=O)C(=O)N1 [iberdomide, reference compound]
Effect on MOLM-13 cell viability (cytotoxicity) ([2]; CTG 72 h): very little effect | cell viability, dose-response replicate values ([2]; Concentration 0.00053416): 104.205 and 101.273 and 105.756 | cell viability, dose-response replicate values ([2]; Concentration 0.00160248): 116.013 and 103.828 and 106.347 | cell viability, dose-response replicate values ([2]; Concentration 0.00480744): 99.9393 and 109.095 and 93.7856 | cell viability, dose-response replicate values ([2]; Concentration 0.0144223): 103.939 and 96.4969 and 110.266 | cell viability, dose-response replicate values ([2]; Concentration 0.0432669): 111.735 and 98.8709 and 109.735 | cell viability, dose-response replicate values ([2]; Concentration 0.129801): 112.307 and 99.7991 and 100.005 | cell viability, dose-response replicate values ([2]; Concentration 0.389402): 95.4783 and 95.9453 and 89.9456 | cell viability, dose-response replicate values ([2]; Concentration 1.16821): 93.0089 and 93.9287 and 92.6782 | cell viability, dose-response replicate values ([2]; Concentration 3.50462): 93.5137 and 89.0055 and 86.6893 | cell viability, dose-response replicate values ([2]; Concentration 10.5139): 95.8132 and 82.1796 and 91.7179

O=C1CCC(N2C(=O)c3ccc(NS(=O)(=O)c4ccccc4OC(F)(F)F)cc3C2=O)C(=O)N1 (stereo not shown) [SJ6986]
Cell viability across the panel of AL and MB cell lines [1]: cytotoxic to all cell lines in the panel

Nc1cccc2c1C(=O)N(C1CCC(=O)NC1=O)C2=O (stereo not shown) [pomalidomide]
Cell viability across the panel of AL and MB cell lines [1]: inactive

O=C1CCC(N2Cc3cc(Nc4noc5ccccc45)ccc3C2=O)C(=O)N1 (stereo not shown) [SJ001043149]
Plasma Concentration, Mean [3, 4]: 4253.68 ng/mL | Plasma Concentration, individual animal [3, 4]: 2474.57 ng/mL and 2615.2 ng/mL and 7671.27 ng/mL | Plasma Concentration, Mean [3, 5]: 3788.89 ng/mL | Plasma Concentration, individual animal [3, 5]: 3408.76 ng/mL and 3558.82 ng/mL and 4399.09 ng/mL | Plasma Concentration, Mean [3, 6]: 3436.75 ng/mL | Plasma Concentration, individual animal [3, 6]: 3844.39 ng/mL and 3042 ng/mL and 3423.87 ng/mL | Plasma Concentration, individual animal ([3]; single intraperitoneal 50 mg/kg, 4 hr): 37.79e ng/mL and 613.87 ng/mL and 1233.77 ng/mL | Plasma Concentration, Mean ([3]; single intraperitoneal 50 mg/kg, 4 hr, average of two values): 22172 ng·h/mL | Plasma Concentration, Mean [3, 7]: 336.83 ng/mL | Plasma Concentration, individual animal [3, 7]: 224.92 ng/mL and 422.53 ng/mL and 363.03 ng/mL | Plasma Concentration, Mean [3, 8]: 626.18 ng/mL | Plasma Concentration, individual animal [3, 8]: 584.82 ng/mL and 376.02 ng/mL and 917.7 ng/mL | Plasma Concentration, individual animal ([3]; single intraperitoneal 50 mg/kg, 12 hr): 1.02e ng/mL and 119 ng/mL and 188.95 ng/mL | Plasma Concentration, Mean ([3]; single intraperitoneal 50 mg/kg, 12 hr, average of two values): 3695.5 ng·h/mL | Plasma Concentration, Mean [3, 9]: 14.86 ng/mL | Plasma Concentration, individual animal [3, 9]: 16.86 ng/mL and 11.98 ng/mL and 15.73 ng/mL | Plasma Concentration, Mean ([3]; single intravenous 3 mg/kg, 0.08 hr): 3540.18 ng/mL | Plasma Concentration, individual animal ([3]; single intravenous 3 mg/kg, 0.08 hr, 3 mg/kg): 3522.19 ng/mL and 3164.19 ng/mL and 3934.15 ng/mL | Plasma Concentration, Mean ([3]; single intravenous 3 mg/kg, 0.5 hr): 548.51 ng/mL | Plasma Concentration, individual animal ([3]; single intravenous 3 mg/kg, 0.5 hr, 3 mg/kg): 590.56 ng/mL and 721 ng/mL and 333.96 ng/mL | Plasma Concentration, individual animal ([3]; single intravenous 3 mg/kg, 1 hr, 3 mg/kg): 89.11 ng/mL and 82.85 ng/mL and 465.12e ng/mL | Plasma Concentration, Mean ([3]; single intravenous 3 mg/kg, 1 hr, average of two values): 2064 ng·h/mL | Plasma Concentration, Mean ([3]; single intravenous 3 mg/kg, 2 hr): 21.37 ng/mL | Plasma Concentration, individual animal ([3]; single intravenous 3 mg/kg, 2 hr, 3 mg/kg): 26.85 ng/mL and 22.73 ng/mL and 14.53 ng/mL | Plasma Concentration, Mean ([3]; single intravenous 3 mg/kg, 4 hr): 5.15 ng/mL | Plasma Concentration, individual animal ([3]; single intravenous 3 mg/kg, 4 hr, 3 mg/kg): 2.92 ng/mL and 9.75 ng/mL and 2.78 ng/mL | Plasma Concentration, individual animal ([3]; single intravenous 3 mg/kg, 8 hr, LLOQ 1.00 ng/mL, 3 mg/kg): BLQ and 2.43e ng/mL | Plasma Concentration, individual animal ([3]; single intravenous 3 mg/kg, 12 hr, LLOQ 1.00 ng/mL): BLQ | Plasma Concentration, individual animal ([3]; single intravenous 3 mg/kg, 24 hr, LLOQ 1.00 ng/mL): BLQ | Plasma Concentration, Mean ([3]; single oral 50 mg/kg, 0.5 hr): 1802.13 ng/mL | Plasma Concentration, individual animal ([3]; single oral 50 mg/kg, 0.5 hr, 50 mg/kg): 1597.22 ng/mL and 2494.42 ng/mL and 1314.74 ng/mL | Plasma Concentration, Mean ([3]; single oral 50 mg/kg, 1 hr): 635.82 ng/mL | Plasma Concentration, individual animal ([3]; single oral 50 mg/kg, 1 hr, 50 mg/kg): 300.99 ng/mL and 799.29 ng/mL and 807.18 ng/mL | Plasma Concentration, individual animal ([3]; single oral 50 mg/kg, 2 hr, 50 mg/kg): 207.45 ng/mL and 268.31 ng/mL and 77.73e ng/mL | Plasma Concentration, Mean ([3]; single oral 50 mg/kg, 2 hr, average of two values): 5709.1 ng·h/mL | Plasma Concentration, Mean ([3]; single oral 50 mg/kg, 4 hr): 35.43 ng/mL | Plasma Concentration, individual animal ([3]; single oral 50 mg/kg, 4 hr, 50 mg/kg): 57.72 ng/mL and 27.57 ng/mL and 21 ng/mL | Plasma Concentration, individual animal ([3]; single oral 50 mg/kg, 6 hr, 50 mg/kg): 5.43e ng/mL and 17.18 ng/mL and 23.01 ng/mL | Plasma Concentration, Mean ([3]; single oral 50 mg/kg, 6 hr, average of two values): 482.4 ng·h/mL | Plasma Concentration, individual animal ([3]; single oral 50 mg/kg, 8 hr, 50 mg/kg): 6.11 ng/mL and 16.97 ng/mL and 1.39e ng/mL | Plasma Concentration, Mean ([3]; single oral 50 mg/kg, 8 hr, average of two values): 277 ng·h/mL | Plasma Concentration, Mean ([3]; single oral 50 mg/kg, 12 hr): 3.98 ng/mL | Plasma Concentration, individual animal ([3]; single oral 50 mg/kg, 12 hr, 50 mg/kg): 3.44 ng/mL and 4.89 ng/mL and 3.6 ng/mL | Plasma Concentration, individual animal ([3]; single oral 50 mg/kg, 24 hr, LLOQ 1.00 ng/mL, 50 mg/kg): 2.03e ng/mL and BLQ
